Assays:
[1] = system: Arabidopsis overexpression line Arabidopsis HPPD; assay: Germination assay in 48-well plates; assay type: in vivo, Arabidopsis thaliana; conditions: plant growth IC50 transgenic / wildtype, mean of 5 T2 events
Description: (§1) Depending on the species, the plants are kept at 10-25° C. or 20-35° C. The test period extends over 3 weeks. During this time, the plants are tended and their response to the individual treatments is evaluated. Herbicide injury evaluations are taken at 2 and 3 weeks after treatment. Plant injury is rated on a scale of 0 to 9, 0 being no injury and 9 being complete death. Tolerance to HPPD-inhibiting, preferably pyrazolone, isoxazole, or triketone derivative herbicides can also be assessed in Arabidopsis. In this case transgenic Arabidopsis thaliana plants are assayed for improved tolerance to HPPD-inhibiting, preferably pyrazolone, isoxazole, or triketone derivative herbicides in 48-well plates. Seeds are surface sterilized by stirring for 5 min in ethanol+water (70+30 by volume), rinsing one time with ethanol+water (70+30 by volume) and two times with a sterile, deionized water. The seeds are resuspended in 0.1% agar dissolved in water (w/v). Four to five seeds per well are plated on solid nutrient medium consisting of half-strength Murashige Skoog nutrient solution, pH 5.8 (Murashige and Skoog (1962) Physiologia Plantarum 15: 473-497). Compounds are dissolved in dimethylsulfoxid (DMSO) and added to the medium prior solidification (final DMSO concentration 0.1%). Multi well plates are incubated in a growth chamber at 22° C., 75% relative humidity and 110 μmol Phot*m−2*s−1 with 14:10 h light:dark photoperiod. Seven to ten days after seeding growth inhibition is evaluated by comparison to wild type plants. Tolerance factor is calculated by dividing the plant growth IC50 value of transgenic plants containing a HPPD and/or HST sequence by that of wildtype plants.

[2] = system: Arabidopsis wild-type control; assay: Germination assay in 48-well plates; assay type: in vivo, Arabidopsis thaliana; conditions: plant growth IC50 ratio to wildtype, mean of 5 T2 events
Description: as §1

[3] = system: Arabidopsis overexpression line Synechocystis HPPD; assay: Germination assay in 48-well plates; assay type: in vivo, Arabidopsis thaliana; conditions: IC50 transgenic / wildtype, mean of 5 T2 events
Description: as §1

[4] = system: transgenic soybean plants AtHPPD, event SDS-10248; assay: Greenhouse testing of soybean plants; assay type: in vivo, Glycine max; conditions: for Injury evaluation (bleaching phenotype, scale of 1-100): soybean AtHPPD SDS-10248, 14 days, average of 8 T1 individuals
Description: (§2) Transgenic plants expressing heterologous HPPD or HST enzymes are tested for tolerance against HPPD-inhibiting, preferably pyrazolone, isoxazole, or triketone derivative herbicides in greenhouse experiments.
(§3) For post emergence treatment, the test plants are first grown to a height of 3 to 15 cm, depending on the plant habit, and only then treated with the herbicides. For this purpose, the test plants are either sown directly and grown in the same containers, or they are first grown separately and transplanted into the test containers a few days prior to treatment.
(§4) For testing of T0 plants, cuttings can be used. In the case of soybean plants, an optimal shoot for cutting is about 7.5 to 10 cm tall, with at least two nodes present. Each cutting is taken from the original transformant (mother plant) and dipped into rooting hormone powder (indole-3-butyric acid, IBA). The cutting is then placed in oasis wedges inside a bio-dome. Wild type cuttings are also taken simultaneously to serve as controls. The cuttings are kept in the bio-dome for 5-7 days and then transplanted to pots and then acclimated in the growth chamber for two more days. Subsequently, the cuttings are transferred to the greenhouse, acclimated for approximately 4 days, and then subjected to spray tests as indicated.
as §1
(§5) Transgenic soy plants were sprayed with a range of doses from 6.25-100 g/ha with an HPPD-inhibiting herbicide and injury evaluations were taken two weeks after treatment. […] Compared to the untransformed wild-type, plants comprising polynucleotides encoding for Arabidopsis HPPD wild-type or mutated versions thereof were less susceptible to Inhibitor 1.

[5] = system: transgenic soybean plants AtHPPD P336A E363Q I393L L385V, event SDS-10085; assay: Greenhouse testing of soybean plants; assay type: in vivo, Glycine max; conditions: soybean AtHPPD P336A E363Q I393L L385V SDS-10085, 14 days, average of 8 T1 individuals
Description: as §2, §3, §4, §1, §5

[6] = system: transgenic soybean plants AtHPPD I393L L385V, event SDS-9908; assay: Greenhouse testing of soybean plants; assay type: in vivo, Glycine max; conditions: soybean AtHPPD I393L L385V SDS-9908, 14 days, average of 8 T1 individuals
Description: as §2, §3, §4, §1, §5

[7] = system: transgenic soybean plants GmHPPD, event SDS-10298; assay: Greenhouse testing of soybean plants; assay type: in vivo, Glycine max; conditions: soybean GmHPPD SDS-10298, 14 days, average of 8 T1 individuals
Description: as §2, §3, §4
as §1, with “Plant injury is rated on a scale of 0 to 9, 0 being no injury and 9 being complete death.” left out
as §5

[8] = system: transgenic soybean plants AtHPPD M335H, event SDS-9863; assay: Greenhouse testing of soybean plants; assay type: in vivo, Glycine max; conditions: soybean AtHPPD M335H SDS-9863, 14 days, average of 8 T1 individuals
Description: as §2, §3, §4
as §1, with “Plant injury is rated on a scale of 0 to 9, 0 being no injury and 9 being complete death.” left out
as §5

[9] = system: soybean plants, transgene none (WT); assay: Greenhouse testing of soybean plants; assay type: in vivo, Glycine max; conditions: no transgene, 14 days after treatment
Description: as §2, §3, §4
as §1, with “Plant injury is rated on a scale of 0 to 9, 0 being no injury and 9 being complete death.” left out
as §5

CS(=O)(=O)c1ccc(C(=O)C2C(=O)CCCC2=O)c([N+](=O)[O-])c1 [Inhibitor 2, 2-(4-methylsulfonyl-2-nitro-benzoyl)cyclohexane-1,3-dione]
Tolerance factor [1]: 10 | Tolerance factor [2]: 1 | Tolerance factor [3]: 10

Cc1c(C(=O)c2cnn(C)c2O)ccc(S(C)(=O)=O)c1C1=NOCC1 [Inhibitor 1, [3-(4,5-dihydroisoxazol-3-yl)-2-methyl-4-methylsulfonyl-phenyl]-(5-hydroxy-1-methyl-pyrazol-4-yl)methanone]
fold tolerance compared to untransformed wild-type ([4]; soy plants with SEQ ID NO:53, 100 g/ha): 2 fold | Injury evaluation (bleaching phenotype, scale of 1-100) ([4]; 6.25 g/ha): 2% | Injury evaluation (bleaching phenotype, scale of 1-100) ([4]; 25 g/ha): 3% | Injury evaluation (bleaching phenotype, scale of 1-100) ([4]; 100 g/ha): 44% | Injury evaluation (bleaching phenotype, scale of 1-100) ([5]; 6.25 g/ha): 16% | Injury evaluation (bleaching phenotype, scale of 1-100) ([5]; 25 g/ha): 35% | Injury evaluation (bleaching phenotype, scale of 1-100) ([5]; 100 g/ha): 78% | Injury evaluation (bleaching phenotype, scale of 1-100) ([6]; 6.25 g/ha): 0% | Injury evaluation (bleaching phenotype, scale of 1-100) ([6]; 25 g/ha): 8% | Injury evaluation (bleaching phenotype, scale of 1-100) ([6]; 100 g/ha): 54% | Injury evaluation (bleaching phenotype, scale of 1-100) ([7]; 6.25 g/ha): 20% | Injury evaluation (bleaching phenotype, scale of 1-100) ([7]; 25 g/ha): 58% | Injury evaluation (bleaching phenotype, scale of 1-100) ([7]; 100 g/ha): 83% | Injury evaluation (bleaching phenotype, scale of 1-100) ([8]; 6.25 g/ha): 0% | Injury evaluation (bleaching phenotype, scale of 1-100) ([8]; 25 g/ha): 4% | Injury evaluation (bleaching phenotype, scale of 1-100) ([8]; 100 g/ha): 59% | Injury evaluation (bleaching phenotype, scale of 1-100) ([9]; 25 g/ha): 90% | Injury evaluation (bleaching phenotype, scale of 1-100) ([9]; 100 g/ha): 90% | Tolerance factor [1]: 9 | Tolerance factor [2]: 1 | Tolerance factor [3]: 7.5
